Source: US8722654B2, “Lipoxin analogs as novel inhibitors of angiogenesis” (The Brigham and Women's Hospital, Inc., priority 2001, dated 2014)
Blank lines part the entries; values can stand above or below the compound they belong to.

Columns and labels:
murine air pouch = assay: Inflammatory angiogenesis, VEGF-treated murine air pouch; format: in vivo, mice (BALB/c)
Protocol: Angiogenesis was assessed with murine air pouches that were raised via subcutaneous injection of sterile air (3 ml) beneath the dorsal skin of anesthetized mice (BALB/c, male 6-8 wk). After 24 hrs, ATL-1 (10 μg/pouch) or vehicle was delivered locally, immediately before the injection of VEGF (1 μg/pouch). The vascular content was assessed by the formation of vascular casts (as in 16). Briefly, mice were anesthetized (at 144 h) and peripheral vasodilation was raised by placing the animals in a heated jacket (40° C., 10 min). Vascular casts were formed by the i.v. injection of 1 ml 5% carmine red (Sigma) in 5% gelatin solution warmed to 40° C. Air pouch linings were dissected and weighed. The tissue was then dissolved in 2 ml of 3 N NaOH solution for 0.5 h, 21° C. and completely digested in hot water (56° C.) for 10 min. Digested samples were centrifuged (2500 rpm, 15 min) and filtered through a 0.45 μm filter. The dye content was quantified employing a 96-well plate spectrophotometer at 530 nm using a calibration curve. The results were expressed as vascular index (VI) as micrograms carmine dye/milligram weight of tissue, for n=4 animals/group. For visualization of the vasculature, the dorsal surface of the pouches was excised and fixed in formalin for 48 h. The tissues were dehydrated with 100% ethanol (5 days, 4° C.) and cleared by immersion in cedar wood oil for 2 weeks. In another set of experiments, mice were anesthetized and injected i.v. with 200 μl of 0.05 g/ml fluorescein isothiocyanate-dextran (Sigma) in PBS at 144 h immediately before sacrifice. Dissected linings were fixed, mounted on glass slides and examined for fluorescence (Nikon Eclipse model E600). In both protocols, the observers were not blinded to the treatments.
Air pouch membranous tissues were fixed in 10% buffered formalin overnight and processed for paraffin embedding. Five-micrometer paraffin sections of membrane tissue cut on face were used for immunohistochemistry for CD31 expression. Briefly, slides were deparaffinized and pretreated in 0.25% trypsin (Sigma Chemical) for 20 min at 37° C., followed by washing in distilled water. All further steps were performed at room temperature in a hydrated chamber. Slides were pretreated with Peroxidase Block (DAKO, Carpinteria, Calif.) for 5 min to quench endogenous peroxidase activity, followed by a 1:5 dilution of goat serum in 50 Mm Tris-Cl, pH 7.4, for 20 min to block nonspecific binding sites. Primary rat anti-murine CD31 antibody (BD PharMingen, San Diego, Calif.) was applied at a 1:100 dilution in 50 mMTris-Cl, pH 7.4, with 3% goat serum for 1 h. After washing in 50 mM Tris-Cl, pH 7.4, secondary rabbit anti-rat antibody (DAKO) was applied at a 1:200 dilution in 50 mM Tris-Cl, pH 7.4, with 3% goat serum for 30 min. Slides were washed again in 50 mM Tris-Cl, pH 7.4, and goat anti-rabbit horseradish peroxidase-conjugated antibody (Envision detection kit: DAKO) was applied for 30 min. After further washing, immunoperoxidase staining was developed using a DAB chromogen kit (DAKO) per the manufacturer and counterstained with hematoxylin.

[1] = Mean arterial pressure after i.v. dosing; format: in vivo; details: 10 μg/mouse i.v.
HUVEC [2] = assay: Inhibition of VEGF-stimulated HUVEC proliferation (MTT); format: cell-based, human; details: for % inhibition of VEGF-stimulated proliferation: equimolar 10 nM, representative experiment
Protocol: (§1) Human umbilical vein endothelial cells (HUVEC) were isolated by 0.1% collagenase digestion (Worthington Biochemical, Bedford, Mass.) and propagated on gelatin-coated (0.1%) tissue culture plates in medium 199 (Gibco BRL, Grand Island, N.Y.) supplemented with 20% heat-inactivated fetal bovine serum (BioWhittaker, Walkersville, Md.), 50 μg/ml of endothelial cell mitogen (Biomedical Technologies, Stoughton, Mass.), 8 U/ml heparin (APP, Los Angeles, Calif.), 50 U/ml penicillin and 15 μg/ml streptomycin. Only passages 2 and 3 were used in reported experiments.
(§2) HUVEC (5×10^3) were plated in 96-well plates coated with 0.1% gelatin for 1 h at room temperature. After 24 h, the medium was removed and replaced with fresh medium 199 supplemented with 5% fetal bovine serum and different concentrations of recombinant human VEGF165 (R&D Systems, Minneapolis, Minn.), LTD4 or LTB4. Endothelial cells were enumerated after 72 h using the MTT® assay (Sigma, St. Louis, Mo.) (15). ATL-1 was prepared as in Clish et al. (13). Percent inhibition was evaluated in a similar manner and included a 15 minute incubation (37° C.) with 15-epi-lipoxin A4, 15-epi-16-(para-fluoro)-phenoxy-lipoxin A4 methyl ester (ATL-1), LXA4, 15-epi-LXA4 or 15-R/S-methyl, LXA4 prior to the addition of agonists. All incubations were performed in triplicate. Before each experiment the integrity and concentration of ATL-1, LXA4, 15-epi-LXA4 or 15-R/S-methyl, LXA4 was assessed by physical methods including LC/MS/MS and UV (13).

HUVEC [3] = assay: HUVEC viability, trypan blue exclusion assay; format: cell-based, human; details: after exposure to ATL-1
HUVEC [4] = assay: Quantitative determination of DNA fragmentation (apoptosis); format: cell-based, human; details: 100 nM alone or with VEGF 3 ng/ml; n=2, d=3
Protocol: DNA fragmentation in individual apoptotic cells was quantitated using a photometric enzyme immunoassay (Apotosis detection kit: R&D Systems). HUVECs grown in 96-well microtiter plates (5×10^3 cells/well) were incubated for 3 days, fixed with 3.7% formaldehyde, and permeabilized with proteinase K before the labeling. Biotinylated nucleotides are incorporated onto the DNA fragments and detected by using steptavidin-horseradish peroxidase conjugate followed by the substrate TACS-Sapphire.

HUVEC [5] = assay: Inhibition of LTD4-stimulated HUVEC proliferation (MTT); format: cell-based, human; details: LTD4 10 nM; ATL-1 0.1-100 nM; read-out: IC50, antagonism of mitogenic action of LTD4
Protocol: as §1
as §2, with “Endothelial cells were enumerated after 72 h using the MTT® assay (Sigma, St. Louis, Mo.) (15). ATL-1 was prepared as in Clish et al. (13).” left out, “All incubations were performed in triplicate.” left out

HUVEC [6] = assay: Endothelial cell migration, 48-well chemotaxis chamber; format: cell-based, human; details: for induction of endothelial cell migration, compound alone: 100 nM, no VEGF
Protocol: VEGF, ATL-1 or vehicle were added to the lower wells of a 48-well chemotaxis chamber (NeuroProbe, Cabin John, Md.). The wells were overlaid with a 10 μm pore size polycarbonate filter coated with 0.1% gelatin. HUVEC (1×10^6) were placed in the upper wells and the chamber was incubated (37° C., 5% CO2 for 12 h). Following incubations, filters were removed, scraped of cells from the upper surface, fixed and stained with Diff-Quik (Dade Behring, Newark, Del.). Cells that migrated across the filter toward the lower surface were enumerated by light microscopy; four fields were counted at high magnification (100×). Incubations were performed in triplicate. To assess inhibition, endothelial cells were suspended in media with vehicle or ATL-1 for 15 min before placement in the chamber.

HUVEC [7] = assay: HUVEC proliferation induced by the compound alone (MTT); format: cell-based, human
Protocol: as §1, §2

changes in mean arterial pressure [1]: does not evoke apparent changes
Compound: O=C(O)CCC[C@H](O)[C@H](O)/C=C/C=C/C=C\C=C\[C@@H](O)COc1ccc(F)cc1 [ATL-1, 15-epi-16-(para-fluoro)-phenoxy-lipoxin A4]
reduction in the vascular index (murine air pouch; 10 μg/pouch local, before VEGF 1 μg/pouch, day 6): ~48%
VEGF-elicited vasculature, fluorescein isothiocyanate-dextran microscopy (murine air pouch; 10 μg/pouch, day 6): striking reduction of VEGF-elicited vasculature
vessels by CD31 immunohistochemical staining (murine air pouch; VEGF-treated mice): marked diminution of vessels
vascular density, carmine vascular casts (murine air pouch; VEGF-treated, day 6 air pouch linings): clearly reduced vascular density
% of VEGF-stimulated proliferation (HUVEC [2]; ATL-1 plus genistein 50 μM, 5 min, 37° C., n=3): 78.0±6.21%
% of VEGF-stimulated proliferation (HUVEC [2]; ATL-1 without genistein): 38.0±2.5%
IC50 (HUVEC [2]; VEGF 3 ng/ml, 3 days, MTT, read-out: IC50, inhibition of VEGF-stimulated proliferation of HUVECs): ~3 nM
concentration of maximal plateau of inhibition (HUVEC [2]; VEGF-stimulated proliferation): 10 nM
% inhibition of VEGF-stimulated proliferation (HUVEC [2]): 63.3±3.3%
HUVEC remaining viable (HUVEC [3]): ~98%
DNA fragmentation pattern (HUVEC [4]): Neither the ATL-1 (100 nM) alone nor in combination with VEGF (3 ng/ml) affected DNA fragmentation pattern
IC50 (HUVEC [5]): ~3 nM
maximum level of inhibition of VEGF-stimulated HUVEC migration (HUVEC [6]; 10 nM, VEGF 3 ng/ml): ~45%
induction of endothelial cell migration, compound alone (HUVEC [6]): did not induce endothelial cell migration
inhibition of VEGF-stimulated HUVEC migration (HUVEC [6]; VEGF 3 ng/ml): concentration-dependent inhibition
action on HUVEC proliferation, analog alone (HUVEC [7]; 100 nM, no VEGF): no apparent actions

Compound: CCCCC[C@H](O)/C=C/C=C\C=C\C=C\[C@@H](O)[C@@H](O)CCCC(=O)O (relative stereo) [LXA4, 5S,6R,15S-trihydroxy-7,9,13-trans-11-cis-eicosatetraenoic acid]
% inhibition of VEGF-stimulated proliferation (HUVEC [2]): 38.1±2.0%
induction of endothelial cell migration, compound alone (HUVEC [6]): did not induce endothelial cell migration
inhibition of VEGF-stimulated HUVEC migration (HUVEC [6]; VEGF 3 ng/ml): concentration-dependent inhibition

Compound: CCCCCC(C)(O)/C=C/C=C\C=C\C=C\[C@@H](O)[C@@H](O)CCCC(=O)OC (relative stereo) [15-R/S-methyl, LXA4, 5S,6R,15R/S-trihydroxy-15-methyl-7,9,13-trans-11-cis-eicosatetraenoic acid, methyl ester]
induction of endothelial cell migration, compound alone (HUVEC [6]): did not induce endothelial cell migration
inhibition of VEGF-stimulated HUVEC migration (HUVEC [6]; VEGF 3 ng/ml): concentration-dependent inhibition

Compound: VEGF [reference compound]
VEGF response, proliferation of HUVEC (HUVEC [7]; VEGF comparison in LTD4 experiment): 52.7±1.6%
VEGF-induced proliferation (HUVEC [7]; footnote of table, VEGF comparison): VEGF-induced proliferation: 50.4 ± 4.0%

Compound: CCCCC/C=C\C\C=C/C=C/C=C/[C@@H](SC[C@H](N)C(=O)NCC(=O)O)[C@@H](O)CCCC(=O)O [LTD4, reference compound]
effect of LTD4 on VEGF-stimulated proliferation (HUVEC [2]): did not enhance or inhibit
stimulated proliferation of HUVEC (HUVEC [7]; 10 nM): 42±1.2%

Compound: CCCCC[C@@H](O)/C=C/C=C\C=C\C=C\[C@@H](O)[C@@H](O)CCCC(=O)O (relative stereo) [15-epi-LXA4, 5S,6R,15R-trihydroxy-7,9,13-trans-11-cis-eicosatetraenoic acid]
% inhibition of VEGF-stimulated proliferation (HUVEC [2]): 59.8±1.8%
induction of endothelial cell migration, compound alone (HUVEC [6]): did not induce endothelial cell migration
inhibition of VEGF-stimulated HUVEC migration (HUVEC [6]; VEGF 3 ng/ml): concentration-dependent inhibition

Compound: CCCCC[C@H](O)[C@@H](O)/C=C/C=C/C=C\C=C\[C@@H](O)CCCC(=O)O [14-epi-LXB4]
Percent of Proliferation (HUVEC [7]; 0.1 nM): 15.5 ± 1.0%
Percent of Proliferation (HUVEC [7]; 1.0 nM): 18.3 ± 1.6%
Percent of Proliferation (HUVEC [7]; 10 nM): 27.0 ± 5.0%
Percent of Proliferation (HUVEC [7]; 100 nM): 27.7 ± 1.3%

Compound: CCCCC[C@H](O)[C@H](O)/C=C/C=C/C=C\C=C\[C@@H](O)CCCC(=O)O [15-epi-LXB4]
Percent of Proliferation (HUVEC [7]; 0.1 nM): 20.1 ± 1.2%
Percent of Proliferation (HUVEC [7]; 1.0 nM): 26.1 ± 2.8%
Percent of Proliferation (HUVEC [7]; 10 nM): 34.0 ± 2.5%
Percent of Proliferation (HUVEC [7]; 100 nM): 35.2 ± 5.2%

Compound: CCCCC/C=C\C[C@@H](O)/C=C/C=C/C=C\[C@@H](O)CCCC(=O)O [LTB4, reference compound]
neovascularization, compound alone (murine air pouch; 10 μg/pouch alone, n=2): stimulated neovascularization
stimulated proliferation of HUVEC (HUVEC [7]; 10 nM): did not give a significant response
